Test [1] deals with T1, Peroxisome proliferator-activated receptor alpha (Homo sapiens, UniProt Q07869).
T1 sequence (Q07869 whole entry): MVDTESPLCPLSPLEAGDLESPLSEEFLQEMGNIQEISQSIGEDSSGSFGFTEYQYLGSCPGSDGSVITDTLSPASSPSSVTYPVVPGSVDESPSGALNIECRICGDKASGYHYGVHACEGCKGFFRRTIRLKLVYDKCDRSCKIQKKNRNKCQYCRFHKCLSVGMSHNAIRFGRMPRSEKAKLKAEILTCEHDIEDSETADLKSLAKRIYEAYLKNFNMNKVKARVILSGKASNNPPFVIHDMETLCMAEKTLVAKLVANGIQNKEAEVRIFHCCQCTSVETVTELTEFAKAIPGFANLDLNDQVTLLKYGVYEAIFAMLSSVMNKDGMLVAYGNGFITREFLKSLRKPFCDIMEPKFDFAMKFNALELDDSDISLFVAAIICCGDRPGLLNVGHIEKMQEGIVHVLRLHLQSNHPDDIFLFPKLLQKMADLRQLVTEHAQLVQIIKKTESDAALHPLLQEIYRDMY
Briefly: Agonist activity at PPARalpha (unknown origin) incubated for 3 to 16 hrs by pathhunter nuclear hormone receptor assay.

In test [2] the target is T2, Peroxisome proliferator-activated receptor alpha (Homo sapiens) (UniProt Q07869).
T2 sequence (whole entry): T1 sequence (Q07869 whole entry)
Put plainly: Agonist activity at PPARalpha (unknown origin) incubated for 3 to 16 hrs by pathhunter nuclear hormone receptor assay relative to GW7647. Details: concentration or dose not given beside the values.

Test [3] deals with T3, Peroxisome proliferator-activated receptor delta (Homo sapiens) (UniProt Q03181).
T3 sequence (whole entry): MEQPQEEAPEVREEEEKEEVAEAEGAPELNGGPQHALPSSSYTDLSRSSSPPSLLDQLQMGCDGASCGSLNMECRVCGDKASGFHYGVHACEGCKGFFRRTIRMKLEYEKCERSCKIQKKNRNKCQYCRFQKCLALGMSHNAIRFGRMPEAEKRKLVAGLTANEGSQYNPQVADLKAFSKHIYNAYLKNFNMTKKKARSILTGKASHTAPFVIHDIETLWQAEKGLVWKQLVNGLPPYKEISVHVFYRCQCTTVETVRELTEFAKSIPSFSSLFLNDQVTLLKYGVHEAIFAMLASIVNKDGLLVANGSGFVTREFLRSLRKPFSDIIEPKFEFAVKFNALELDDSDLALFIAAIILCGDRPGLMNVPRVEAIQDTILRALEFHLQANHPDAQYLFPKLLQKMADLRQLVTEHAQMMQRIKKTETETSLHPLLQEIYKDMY
Briefly: Agonist activity at PPARbeta (unknown origin) incubated for 3 to 16 hrs by pathhunter nuclear hormone receptor assay relative to L-165,041.

Test [4] addresses T4, Peroxisome proliferator-activated receptor gamma (Homo sapiens) (UniProt P37231).
T4 sequence (whole entry): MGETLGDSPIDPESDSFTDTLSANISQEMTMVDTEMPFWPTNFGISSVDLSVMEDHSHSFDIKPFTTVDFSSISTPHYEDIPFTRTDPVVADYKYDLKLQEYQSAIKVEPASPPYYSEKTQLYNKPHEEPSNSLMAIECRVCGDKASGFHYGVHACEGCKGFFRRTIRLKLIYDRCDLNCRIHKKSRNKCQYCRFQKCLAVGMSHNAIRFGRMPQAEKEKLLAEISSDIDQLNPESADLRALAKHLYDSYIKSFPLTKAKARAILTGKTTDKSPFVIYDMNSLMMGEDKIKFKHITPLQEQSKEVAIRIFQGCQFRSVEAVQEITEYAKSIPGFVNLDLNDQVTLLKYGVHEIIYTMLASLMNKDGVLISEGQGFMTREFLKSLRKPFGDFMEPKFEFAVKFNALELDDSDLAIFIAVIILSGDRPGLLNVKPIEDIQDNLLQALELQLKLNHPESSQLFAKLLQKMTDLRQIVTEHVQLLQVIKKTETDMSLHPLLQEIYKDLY
Put plainly: Agonist activity at PPARgamma (unknown origin) incubated for 3 to 16 hrs by pathhunter nuclear hormone receptor assay relative to Troglitazone.

For test [5], the system named is Rattus norvegicus. Briefly: Hepatoprotective activity in Sprague-Dawley rat assessed as reduction in ANIT-stimulated total bilirubin level at 30 mg/kg, ig administered for 8 days by biochemical analysis. The class given is functional, organism-based.
Test [6] deals with Rattus norvegicus. Briefly: Hepatoprotective activity in Sprague-Dawley rat assessed as reduction in ANIT-stimulated inflammatory score at 30 mg/kg, ig administered for 8 days by hematoxylin and eosin staining based mopho-metric analysis. The test is classed as functional, organism-based.
Test [7] has as its system Rattus norvegicus. Put plainly: Hepatoprotective activity in Sprague-Dawley rat assessed as reduction in ANIT-stimulated fibrosis area at 30 mg/kg, ig administered for 8 days by hematoxylin and eosin staining based mopho-metric analysis. The test is classed as functional, organism-based.
Test [8] concerns Rattus norvegicus. Put plainly: Hepatoprotective activity in Sprague-Dawley rat assessed as reduction in ANIT-stimulated total bilirubin level at 20 mg/kg, ig administered for 8 days by biochemical analysis. The test is classed as functional, organism-based.
Test [9] concerns Rattus norvegicus. Put plainly: Hepatoprotective activity in Sprague-Dawley rat assessed as reduction in ANIT-stimulated inflammatory score at 20 mg/kg, ig administered for 8 days by hematoxylin and eosin staining based mopho-metric analysis. The test is classed as functional, organism-based.
Test [10] relates to Rattus norvegicus. Briefly: Hepatoprotective activity in Sprague-Dawley rat assessed as reduction in ANIT-stimulated fibrosis area at 20 mg/kg, ig administered for 8 days by hematoxylin and eosin staining based mopho-metric analysis. The test is classed as functional, organism-based.
Test [11] addresses T5, Peroxisome proliferator-activated receptor delta (Homo sapiens, UniProt Q03181).
T5 sequence (Q03181 whole entry): T3 sequence (whole entry)
Briefly: Agonist activity at PPARbeta (unknown origin) incubated for 3 to 16 hrs by pathhunter nuclear hormone receptor assay.

Test [12] has as its target T6, Peroxisome proliferator-activated receptor gamma (Homo sapiens, UniProt P37231).
T6 sequence (P37231 whole entry): T4 sequence (whole entry)
Put plainly: Agonist activity at PPARgamma (unknown origin) incubated for 3 to 16 hrs by pathhunter nuclear hormone receptor assay.

The next test is filed under the species Homo sapiens. Put plainly: Selectivity index, ratio of EC50 of PPARgamma (unknown origin) to EC50 of PPARalpha (unknown origin).
Test [13] concerns the target PPAR delta/gamma (Homo sapiens) (UniProt P37231+Q03181). Briefly: Selectivity index, ratio of EC50 of PPARgamma (unknown origin) to EC50 of PPARdelta (unknown origin). The test is classed as protein assay.
Test [14] concerns the target T2, Peroxisome proliferator-activated receptor alpha (Homo sapiens). Put plainly: Potency index, ratio of EC50 of GFT505 to ratio of EC50 of compound for agonist activity at PPARalpha (unknown origin) incubated for 3 to 16 hrs by pathhunter nuclear hormone receptor assay.

pEC50: −log10 of the molar value. Calls of active or inactive are those of the source. The calls are words filed in the database; no cut-off is given here.

The results in this text go back to ChEMBL document CHEMBL4304783, “Discovery of a Novel Selective Dual Peroxisome Proliferator-Activated Receptor α/δ Agonist for the Treatment of Primary Biliary Cirrhosis” (ACS Med Chem Lett, 2019).

The compound `Cc1cc(-c2cc(-c3ccc(Br)cc3)on2)cc(C)c1OC(C)(C)C(=O)O` showed a pEC50 in test [1] below 5.00. Moreover, in test [2], the Activity amounted to 5%.

Regarding `CSc1ccc(C(=O)/C=C/c2cc(C)c(OC(C)(C)C(=O)O)c(C)c2)cc1` [ELAFIBRANOR], the pEC50 in [1] is 6.65. Moreover, the Activity in test [2] is 117%; in test [3], 72%; in [4], 93%. Further, in the test with Rattus norvegicus [5], the result was Active. For the same compound, the outcome in the test on Rattus norvegicus [6] and in the test with Rattus norvegicus [7] was inactive.

In test [1], `Cc1cc(Cc2cnoc2-c2ccc(Br)cc2)cc(C)c1OC(C)(C)C(=O)O` showed a negative-log EC50 (pEC50) of 5.55. In addition, the Activity in test [2] worked out at 78%.

`CC[C@H]1[C@@H](O)[C@@H]2[C@H](CC[C@]3(C)[C@@H]([C@H](C)CCC(=O)O)CC[C@@H]23)[C@@]2(C)CC[C@@H](O)C[C@@H]12`: the result in the test on Rattus norvegicus [8] was Active. The result in the test on Rattus norvegicus [9] and in the test on Rattus norvegicus [10] was inactive.

For the compound `Cc1cc(CCc2cc(-c3ccc(Br)cc3)on2)cc(C)c1OC(C)(C)C(=O)O`, the pEC50 in test [1] is 7.57; in test [11], 8.30; in test [12], 6.34. Besides, the Activity was found to be 134% in test [2], 73% in [3] and 78% in [4]. Moreover, the Ratio EC50 in the test listed under Homo sapiens was 17; in test [13], 91; in test [14], 8 to 28.

`Cc1cc(Cc2onc3c2CCOc2cc(Br)ccc2-3)cc(C)c1OC(C)(C)C(=O)O`: the pEC50 in [1] is 5.47. The same compound showed an Activity in [2] of 85%.

Take `Cc1cc(Cc2noc3c2CCOc2cc(Br)ccc2-3)cc(C)c1OC(C)(C)C(=O)O`: in test [1], the pEC50 is 5.05. Moreover, in test [2], the Activity stood at 50%.

`CCCc1c(OCCCOc2ccc(OCC(=O)O)cc2)ccc(C(C)=O)c1O` gave a negative logarithm of the EC50 (pEC50) in test [11] of 7.21.

In test [1], `Cc1cc(Cc2cc(-c3ccccc3)on2)cc(C)c1OC(C)(C)C(=O)O` gave a pEC50 of 6.41. In [2], this compound came in with an Activity of 85%.
